Results from patent publication US20230242474A1, “LIPID COMPOUND AND THE COMPOSITION THEREOF” (GUANGZHOU RIBOBIO CO., LTD, priority 2020, published 2023).
Values joined by “and” are separate entries in the source; they are usually repeats but may differ in a detail not shown here. Equal values may be shown once. Read-outs that look alike come from different tables or passages of the source.

How the values were obtained:
[1] = test system: T lymphocytes secreting INFγ; experiment: ELISPOT count of T lymphocytes secreting INFγ after immunization with LNP-encapsulated SARS-CoV-2 S protein mRNA; assay type: in vivo, BALB/c mice; conditions: S protein (1 μg) stimulation, intramuscular Day 0 and Day 14, spleens after 7 days
BALB/c mice = experiment: Transfection efficiency: in vivo bioluminescence of luciferase mRNA encapsulated by different LNP; conditions: intramuscular injection, 1 μg/ mice
Method: All animals were kept in adaptive feeding for more than 7 days before experiments, free to uptake food and drink water during experimental period, illumination 12/12 h alternating light and dark, room temperature was 20-26° C., humidity was 40-70%.
Experimental method: female BALB/c mice, encapsulated luciferase mRNA with different LNP by four different administrations which included subcutaneous injection (under the armpit), tail vein injection, intraperitoneal injection, intramuscular injection (the tibialis anterior muscle of mouse hind leg); 3, 6, 24, 48 h after administration, applied in vivo fluorescence imaging system (brand: Bruker, model: XTREME) for bioluminescence detection, the specific steps were as follows: substrate preparation: took appropriate amount of substrate Luciferin (brand: Promega) and added saline to make a 10 mg/ml solution, avoided light, injected 100 μl solution into each mouse intraperitoneally. […] Put the anesthetized mouse into machine, set the bioluminescence setting and took the photos, captured the photograph and then adjusted the upper and lower values of photograph, then collected data on the concentrated distribution of fluorescence (e.g., fluorescence intensity, average photons number, and total photons number) and processed data. Statistical analysis: the in vivo imaging outcome were shown in the fluorescence intensity or average of total photons number of different animal in the same tested group, which were used to judge whether the fluorescence intensity or total photon number of luciferase mRNA encapsulated by different LNP were high or low.
The fluorescence intensity and total photons number reflects the transfection efficiency of LNP, the value is higher, referring to the efficiency of delivering encapsulated substance into cell by LNP is higher.

Wistar rats = experiment: Safety evaluation of LNP: acute toxicity test in rat; assay type: in vivo; design: key to Histopathological result, Muscle tissue / Histopathological result, Heart / Histopathological result, Liver / Histopathological result, Kidney / Histopathological result, Spleen / Histopathological result, Thymus / Histopathological result, Lymph nodes / Histopathological result, Pancreas: ″—″ means no abnormality
Method: Wistar rats including 4 males and 4 females, with a weight difference of no more than 10%, were selected and randomly divided into two groups: solvent control group and tested substance group. The concentration used in the measurement was 2 mg/mL. Each animal was administered 3 times a day with the volume of each injection as 250 μl. The administration interval was 4 hours. Alternate administration to the left and right legs were performed. The total dosage level was 1.50 mg per rat, which was equivalent to 1200 times the maximum unit weight dosage level for human (assuming the maximum dosage level for human is 0.25 mg). Clinical observation was recorded as follows. Within 24 hours after administration, clinical observation was carried out every hour. Within 24-72 hours after administration, clinical observation was carried out once every 6 hours. Within 4-14 days after administration, clinical observation was carried out once a day. The symptoms of toxicity, the time when the symptoms appeared and disappeared, and the time of death (if occurred) were recorded. Body weight was recorded once a day after administration, and food intake was recorded every 2 days after administration. 14 days after the administration, all the remaining animals were weighed, then euthanized, and major organs were obtained by anatomy. Heart, liver, spleen, lung, kidney, thymus, lymph node, were weighted and relative organ weight (the organ weight/the subject weight×100%; also known as organ coefficient) was calculated. After anatomy, the heart, liver, spleen, lung, kidney, intestine, thymus, lymph node, muscle tissue at the injection site and other organs with pathological changes observed were stored in a fixation solution, and the pathology of each organ was examined by H&E staining. Lesion severity scores were given according to the table below.
Specifically, the body weight of male rats in the solvent control group continued to increase. […] The food intake per rat in the solvent control group within 24 hours was stable, within a range of 18-35 grams.

[2] = assay type: physicochemical
[3] = test system: S protein specific IgG antibody; assay type: in vivo, BALB/c mice; conditions: 14 days after the second immunization, LNP with S protein mRNA, FIG. 5
[4] = H&E, day 14, 1.50 mg per rat, animals 1001 and 1101
[5] = empty LNP, 1.50 mg per rat i.m., day 14, average of male, female rat
[6] = empty LNP, 1.50 mg per rat, day 14
[7] = LNP empty vector used in the rat safety study, Table 5
[8] = LNP with SARS-CoV-2 S protein mRNA, Table 9
[9] = lipid nanoparticle of the ionizable lipid with mRNA, Table 1

In the case of CCCCCCOCC(COCCCCCC)OC(=O)CCCCCCCN(CCO)CCCCCCCC(=O)OC(COCCCCCC)COCCCCCC [A18], the “Elispot counted T lymphocytes secreting INFγ” value ([1]; dose 5 μg) is reported as 161 and 153, the “Elispot counted T lymphocytes secreting INFγ” value ([1]; dose 20 μg) is reported as 241 and 251 and the “Total photons number, Leg” value (BALB/c mice; 3 h) is reported as 3.91E+09. The “Total photons number, Leg” value (BALB/c mice; 6 h) was 4.16E+09, the “Total photons number, Leg” value (BALB/c mice; 24 h) was 2.90E+08 and the “Overall pathological changes after the 1200 times higher dosage level of the LNP injection” value (Wistar rats; 1.50 mg per rat, 1200 times the maximum unit weight dosage level for human) was “only slight pathological changes in the lungs and legs”. The “Histopathological result, Heart” value (Wistar rats; [4]) was “—”, the “Histopathological result, Kidney” value (Wistar rats; [4]) was “—” and the “Histopathological result, Liver” value (Wistar rats; [4]) was “—”. For the same molecule, the “Histopathological result, Lymph nodes” value (Wistar rats; [4]) was “—”, the “Histopathological result, Pancreas” value (Wistar rats; [4]) was “—” and the “Histopathological result, Spleen” value (Wistar rats; [4]) was “—”. For the same molecule, the “Histopathological result, Thymus” value (Wistar rats; [4]) was “—”, the “Histopathological result, Lung” value (Wistar rats; H&E, day 14, 1.50 mg per rat, animals 1001 and 1101, cell wraps over three grid rows: Partial stromal cell hyperplasia) was “Partial” and the “Histopathological result, Muscle tissue” value (Wistar rats; H&E, day 14, 1.50 mg per rat, injection site, animals 1001 and 1101) was “—”. The “Body weight change of rats” value (Wistar rats; empty LNP, 1.50 mg per rat i.m., 14 days, FIGS. 1-2) was “dropped initially, then recovered to the pre-administration level on Day 4-Day 6, and continued to increase subsequently”, the “Food intake change of rats” value (Wistar rats; empty LNP, 1.50 mg per rat i.m., 14 days, FIGS. 3-4) was “decreased initially, and returned to normal levels on Day 4-Day 7” and the “Relative organ weight, Brain” value (Wistar rats; [5]) was 0.687. For the same molecule, the “Relative organ weight, Kidney left” value (Wistar rats; [5]) was 0.351, the “Relative organ weight, Kidney right” value (Wistar rats; [5]) was 0.356 and the “Relative organ weight, Liver” value (Wistar rats; [5]) was 3.773. For the same molecule, the “Relative organ weight, Lung” value (Wistar rats; [5]) was 0.413, the “Relative organ weight, Lymph nodes” value (Wistar rats; [5]) was 0.006 and the “Relative organ weight, Spleen” value (Wistar rats; [5]) was 0.250. The “Relative organ weight, Thymus” value (Wistar rats; [5]) was 0.149, the “Relative organ weight, Heart” value (Wistar rats; empty LNP, 1.50 mg per rat i.m., day 14, organ weight/subject weight×100%, average of male, female rat) was 0.308 and the “Heart, liver, kidney, spleen, thymus and lymph node coefficients compared with the solvent control group” value (Wistar rats; [6]) was “did not show significant difference”. The “Pathological change in the lung” value (Wistar rats; [6]) was “proliferation of partial interstitial cells in the lung”, the “Pathological change in the muscle tissue” value (Wistar rats; [6]) was “a small amount of inflammatory cell infiltration in the muscle tissue” and the “Pathological changes of heart, liver, kidney, spleen, thymus, and lymph nodes” value (Wistar rats; empty LNP, 1.50 mg per rat, day 14, compared with solvent control) was “no pathological changes”. The PDI [2, 7] was 0.088, the “Size (nm)” value [2, 7] was 147 nm and the “Encapsulated percentage (%)” value [2, 8] was 94%. The PI [2, 8] was 0.075, the “Size (nm)” value [2, 8] was 86 nm and the “Size (nm)” value ([2]; lipid nanoparticle of the ionizable lipid (ionizable lipid/phospholipid/PEG lipid/structural lipid 50/10/1.5/38.5 %) with mRNA, Table 1) was 104.8 nm. The “Encapsulated percentage (%)” value [2, 9] was 93.58%, the PDI [2, 9] was 0.0835 and the “S protein specific IgG antibody titer” value [3] was “higher titers of IgG antibodies”.
